Assay results taken from patent publication US20210395313A1, “PEPTIDE PAC1 ANTAGONISTS” (AMGEN INC., priority 2017, published 2021).
Where a SMILES comes first, the peptide text is derived from it. Bridges are numbered along the chain shown (N, C = ends).

Legend:
rat PAC1 receptor = molecular target: T1, rat PAC1 receptor (Rattus norvegicus, UniProt P32215); experiment: LANCE Ultra cAMP accumulation antagonist assay in RG-2 cells; type: cell-based;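 also: RG-2 rat glioma cells endogenously expressing PAC1, test peptide preincubated 30 min, then PAC1 agonist added at its EC80 for 15 min, cAMP accumulation read by LANCE Ultra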
T1 construct: SHSY-5Y (human neuroblastoma cell line) and RG-2 (rat glioma cell line) cells endogenously express human and rat PAC1 receptors, respectively; endogenous in cells; host or cells: RG-2 rat glioma cells
T1 sequence (P32215 20-523): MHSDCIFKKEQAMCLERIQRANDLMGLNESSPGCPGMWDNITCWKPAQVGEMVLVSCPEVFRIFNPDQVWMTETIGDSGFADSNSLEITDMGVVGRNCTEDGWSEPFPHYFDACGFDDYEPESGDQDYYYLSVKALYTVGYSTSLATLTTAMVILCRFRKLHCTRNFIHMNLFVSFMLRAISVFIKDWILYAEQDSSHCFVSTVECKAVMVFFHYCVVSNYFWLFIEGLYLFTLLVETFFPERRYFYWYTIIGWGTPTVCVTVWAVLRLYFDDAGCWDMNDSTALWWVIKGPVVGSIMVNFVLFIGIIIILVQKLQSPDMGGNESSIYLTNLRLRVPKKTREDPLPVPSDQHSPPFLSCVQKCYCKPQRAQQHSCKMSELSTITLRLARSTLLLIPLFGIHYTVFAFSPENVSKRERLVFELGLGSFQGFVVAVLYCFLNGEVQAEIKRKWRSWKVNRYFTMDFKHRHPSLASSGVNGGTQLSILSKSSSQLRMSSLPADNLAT

human PAC1 receptor = molecular target: T2, human PAC1 receptor (Homo sapiens, UniProt P41586); experiment: LANCE Ultra cAMP accumulation antagonist assay in SHSY-5Y cells; type: cell-based;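 also: inhibition of cAMP accumulation evoked by PAC1 agonist at its EC80 in SHSY-5Y cells endogenously expressing receptor, 30 min preincubation then 15 min agonist, TR-FRET readout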
T2 construct: SHSY-5Y (human neuroblastoma cell line) and RG-2 (rat glioma cell line) cells endogenously express human and rat PAC1 receptors, respectively; endogenous in cells; host or cells: SHSY-5Y human neuroblastoma cells
T2 sequence (P41586 21-468): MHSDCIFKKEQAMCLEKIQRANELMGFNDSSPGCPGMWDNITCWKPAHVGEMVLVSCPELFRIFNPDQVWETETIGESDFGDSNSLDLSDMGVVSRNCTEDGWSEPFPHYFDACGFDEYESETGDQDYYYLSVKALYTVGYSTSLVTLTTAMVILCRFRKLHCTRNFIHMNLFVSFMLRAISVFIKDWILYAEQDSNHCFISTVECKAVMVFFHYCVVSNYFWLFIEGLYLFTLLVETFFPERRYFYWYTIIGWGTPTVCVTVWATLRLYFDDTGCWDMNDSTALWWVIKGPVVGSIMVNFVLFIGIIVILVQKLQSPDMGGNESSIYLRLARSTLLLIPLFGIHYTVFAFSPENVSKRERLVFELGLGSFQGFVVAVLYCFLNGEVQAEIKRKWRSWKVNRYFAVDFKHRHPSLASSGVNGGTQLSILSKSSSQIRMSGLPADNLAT

Row | Structure (SMILES) | IC50 (rat PAC1 receptor) | IC50 (human PAC1 receptor)
1 | CC[C@H](C)[C@H](NC(=O)[C@H](C)NC(=O)[C@H](CCCCN)NC(=O)[C@H](CCCNC(=N)N)NC(=O)[C@H](Cc1ccccc1)NC(=O)[C@H](CCC(N)=O)NC(=O)[C@@H]1CSSC[C@H](N)C(=O)N[C@@H](CC(=O)O)C(=O)N[C@@H](C)C(=O)N[C@@H]([C@@H](C)O)C(=O)N1)C(=O)N[C@@H](CC(=O)O)C(=O)N[C@@H](CC(=O)O)C(=O)N[C@H]1CSSC[C@@H](C(=O)N[C@@H](CCSC)C(=O)N[C@@H](CCCCN)C(=O)N[C@@H](CCC(N)=O)C(=O)N[C@@H](CCCCN)C(=O)N[C@@H](CCCCN)C(=O)N[C@@H](CCCCN)C(=O)N[C@@H](CCC(=O)O)C(=O)N[C@@H](Cc2ccccc2)C(=O)N[C@@H](CCCCN)C(=O)N[C@@H](C)C(=O)NCC(=O)N[C@@H](Cc2c[nH]cn2)C(=O)O)NC(=O)[C@H](C)NC(=O)[C@H](CCCCN)NC(=O)[C@H](Cc2ccccc2)NC(=O)[C@H](C(C)C)NC(=O)[C@H](CO)NC(=O)[C@H](CO)NC(=O)[C@H](Cc2c[nH]cn2)NC(=O)[C@H](Cc2c[nH]cn2)NC(=O)[C@H](C)NC(=O)[C@H](CCC(N)=O)NC(=O)[C@H](CCCCN)NC(=O)[C@H](C(C)C)NC1=O [compound 19] (H-CDATCQFRKAIDDCVKQAHHSSVFKACMKQKKKEFKAGH-OH; disulfide 1-5, 14-27) | 0.01 to 1 nM | 1 to 100 nM
2 | CC[C@H](C)[C@H](NC(=O)[C@H](C)NC(=O)[C@H](CCCCN)NC(=O)[C@H](CCCNC(=N)N)NC(=O)[C@H](Cc1ccccc1)NC(=O)[C@H](CCC(N)=O)NC(=O)[C@@H]1CSSC[C@H](N)C(=O)N[C@@H](CC(=O)O)C(=O)N[C@@H](C)C(=O)N[C@@H]([C@@H](C)O)C(=O)N1)C(=O)N[C@@H](CC(=O)O)C(=O)N[C@@H](CC(=O)O)C(=O)N[C@H]1CSSC[C@@H](C(=O)N[C@@H](CCSC)C(=O)N[C@@H](CCCCN)C(=O)N[C@@H](CCC(N)=O)C(=O)N[C@@H](CCCCN)C(=O)N[C@@H](CCCCN)C(=O)N[C@@H](CCCCN)C(=O)N[C@@H](CCC(=O)O)C(=O)N[C@@H](Cc2c[nH]c3ccccc23)C(=O)N[C@@H](CCCCN)C(=O)N[C@@H](C)C(=O)NCC(N)=O)NC(=O)[C@H](C)NC(=O)[C@H](CCCCN)NC(=O)[C@H](Cc2ccccc2)NC(=O)[C@H](CO)NC(=O)[C@H](CO)NC(=O)[C@H](Cc2c[nH]cn2)NC(=O)[C@H](Cc2ccc(O)cc2)NC(=O)[C@H](C)NC(=O)[C@H](CCC(N)=O)NC(=O)[C@H](CCCNC(=N)N)NC(=O)[C@H](C)NC1=O [compound 20] (H-CDATCQFRKAIDDCARQAYHSSFKACMKQKKKEWKAG-NH2; disulfide 1-5, 14-26) | 0.01 to 1 nM | 0.01 to 1 nM
3 | CC[C@H](C)[C@H](NC(=O)[C@H](C)NC(=O)[C@H](CCCCN)NC(=O)[C@H](CCCNC(=N)N)NC(=O)[C@H](Cc1ccccc1)NC(=O)[C@H](CCC(N)=O)NC(=O)[C@@H]1CSSC[C@H](N)C(=O)N[C@@H](CC(=O)O)C(=O)N[C@@H](C)C(=O)N[C@@H]([C@@H](C)O)C(=O)N1)C(=O)N[C@@H](CC(=O)O)C(=O)N[C@@H](CC(=O)O)C(=O)N[C@H]1CSSC[C@@H](C(=O)N[C@@H](CCSC)C(=O)N[C@@H](CCCCN)C(=O)N[C@@H](CCC(N)=O)C(=O)N[C@@H](CCCCN)C(=O)N[C@@H](CCCCN)C(=O)N[C@@H](CCCCN)C(=O)N[C@@H](CCC(=O)O)C(=O)N[C@@H](Cc2c[nH]c3ccccc23)C(=O)N[C@@H](CCCCN)C(=O)N[C@@H](C)C(=O)NCC(N)=O)NC(=O)[C@H](C)NC(=O)[C@H](CCCCN)NC(=O)[C@H](Cc2ccccc2)NC(=O)[C@H](C(C)C)NC(=O)[C@H](CO)NC(=O)[C@H](CO)NC(=O)[C@H](Cc2c[nH]cn2)NC(=O)[C@H](Cc2ccc(O)cc2)NC(=O)[C@H](C)NC(=O)[C@H](CCC(N)=O)NC(=O)[C@H](CCCNC(=N)N)NC(=O)[C@H](CC(=O)O)NC1=O [compound 21] (H-CDATCQFRKAIDDCDRQAYHSSVFKACMKQKKKEWKAG-NH2; disulfide 1-5, 14-27) | 0.01 to 1 nM | 0.01 to 1 nM
4 | CC[C@H](C)[C@H](NC(=O)[C@H](C)NC(=O)[C@H](CCCCN)NC(=O)[C@H](CCCNC(=N)N)NC(=O)[C@H](Cc1ccccc1)NC(=O)[C@H](CCC(N)=O)NC(=O)[C@@H]1CSSC[C@H](N)C(=O)N[C@@H](CC(=O)O)C(=O)N[C@@H](C)C(=O)N[C@@H]([C@@H](C)O)C(=O)N1)C(=O)N[C@@H](CC(=O)O)C(=O)N[C@@H](CC(=O)O)C(=O)N[C@H]1CSSC[C@@H](C(=O)N[C@@H](CCSC)C(=O)N[C@@H](CCCCN)C(=O)N[C@@H](CCC(N)=O)C(=O)N[C@@H](CCCCN)C(=O)N[C@@H](CCCCN)C(=O)N[C@@H](CCCCN)C(=O)N[C@@H](CCC(=O)O)C(=O)N[C@@H](Cc2c[nH]c3ccccc23)C(=O)N[C@@H](CCCCN)C(=O)N[C@@H](C)C(=O)NCC(=O)N[C@@H](Cc2c[nH]cn2)C(=O)O)NC(=O)[C@H](C)NC(=O)[C@H](CCCCN)NC(=O)[C@H](Cc2ccccc2)NC(=O)[C@H](C(C)C)NC(=O)[C@H](CO)NC(=O)[C@H](CO)NC(=O)[C@H](Cc2c[nH]cn2)NC(=O)[C@H](Cc2c[nH]cn2)NC(=O)[C@H](C)NC(=O)[C@H](CCC(N)=O)NC(=O)[C@H](CCCCN)NC(=O)[C@H](C)NC1=O [compound 26] (H-CDATCQFRKAIDDCAKQAHHSSVFKACMKQKKKEWKAGH-OH; disulfide 1-5, 14-27) | 0.01 to 1 nM | 0.01 to 1 nM
5 | CC[C@H](C)[C@H](NC(=O)[C@H](C)NC(=O)[C@H](CCCCN)NC(=O)[C@H](CCCNC(=N)N)NC(=O)[C@H](Cc1ccccc1)NC(=O)[C@H](CCC(N)=O)NC(=O)[C@@H]1CSSC[C@H](N)C(=O)N[C@@H](CC(=O)O)C(=O)N[C@@H](C)C(=O)N[C@@H]([C@@H](C)O)C(=O)N1)C(=O)N[C@@H](CC(=O)O)C(=O)N[C@@H](CC(=O)O)C(=O)N[C@H]1CSSC[C@@H](C(=O)N[C@@H](CCSC)C(=O)N[C@@H](CCCCN)C(=O)N[C@@H](CCC(N)=O)C(=O)N[C@@H](CCCCN)C(=O)N[C@@H](CCCCN)C(=O)N[C@@H](CCCCN)C(=O)N[C@@H](CCC(=O)O)C(=O)N[C@@H](Cc2c[nH]c3ccccc23)C(=O)N[C@@H](CCCCN)C(=O)N[C@@H](C)C(=O)NCC(=O)N[C@@H](Cc2c[nH]cn2)C(=O)O)NC(=O)[C@H](C)NC(=O)[C@H](CCCCN)NC(=O)[C@H](Cc2ccccc2)NC(=O)[C@H](C(C)C)NC(=O)[C@H](CO)NC(=O)[C@H](CO)NC(=O)[C@H](Cc2c[nH]cn2)NC(=O)[C@H](Cc2ccc(O)cc2)NC(=O)[C@H](C)NC(=O)[C@H](CCC(N)=O)NC(=O)[C@H](CCCNC(=N)N)NC(=O)[C@H](C)NC1=O [compound 27] (H-CDATCQFRKAIDDCARQAYHSSVFKACMKQKKKEWKAGH-OH; disulfide 1-5, 14-27) | 0.01 to 1 nM | 0.01 to 1 nM
6 | CC[C@H](C)[C@H](NC(=O)[C@H](C)NC(=O)[C@H](CCCCN)NC(=O)[C@H](CCCNC(=N)N)NC(=O)[C@H](Cc1ccccc1)NC(=O)[C@H](CCC(N)=O)NC(=O)[C@@H]1CSSC[C@H](N)C(=O)N[C@@H](CC(=O)O)C(=O)N[C@@H](C)C(=O)N[C@@H]([C@@H](C)O)C(=O)N1)C(=O)N[C@@H](CC(=O)O)C(=O)N[C@@H](CC(=O)O)C(=O)N[C@H]1CSSC[C@@H](C(=O)N[C@@H](CCSC)C(=O)N[C@@H](CCCCN)C(=O)N[C@@H](CCC(N)=O)C(=O)N[C@@H](CCCCN)C(=O)N[C@@H](CCCCN)C(=O)N[C@@H](CCCCN)C(=O)N[C@@H](CCC(=O)O)C(=O)N[C@@H](Cc2c[nH]c3ccccc23)C(=O)N[C@@H](CCCCN)C(=O)N[C@@H](C)C(=O)NCC(=O)N[C@@H](Cc2c[nH]cn2)C(=O)O)NC(=O)[C@H](C)NC(=O)[C@H](CCCCN)NC(=O)[C@H](Cc2ccccc2)NC(=O)[C@H](C(C)C)NC(=O)[C@H](CO)NC(=O)[C@H](CO)NC(=O)[C@H](Cc2c[nH]cn2)NC(=O)[C@H](Cc2c[nH]cn2)NC(=O)[C@H](C)NC(=O)[C@H](CCC(N)=O)NC(=O)[C@H](CCCNC(=N)N)NC(=O)[C@H](C)NC1=O [compound 28] (H-CDATCQFRKAIDDCARQAHHSSVFKACMKQKKKEWKAGH-OH; disulfide 1-5, 14-27) | 0.01 to 1 nM | 0.01 to 1 nM
